Laboratory results reported in patent US11130752B2, “Aminopyrimidine compound” (Cardurion Pharmaceuticals, LLC, priority 2018, dated 2021).
Where a name gives a salt, the structure may show the parent alone.

Target: T1, human CaMKIIδ (Homo sapiens, UniProt Q13557)
T1 construct: Full-length, glutathione-S-transferase(GST)-tagged, human CaMKIIδ was purchased from Carna Biosciences; purchased Carna Biosciences (CaMKIIδ); Wako Pure Chemical Industries (calmodulin) 02-111
Experiment: In vitro CaMKII inhibitory activity (binding assay, TR-FRET)
Details: Table 1, GST-tagged human CaMKIIδ, activity ranks
Procedure: Evaluation of In Vitro CaMKII Inhibitory Activity (Binding Assay)
In vitro CaMKIIδ inhibitory activity was evaluated by a binding assay.
Full-length, glutathione-S-transferase(GST)-tagged, human CaMKIIδ was purchased from Carna Biosciences (product #02-111, Kobe, Japan). Full-length bovine calmodulin was purchased from Wako Pure Chemical Industries (Osaka, Japan). Terbium-labeled anti-GST antibody (Tb-anti-GST Ab) was purchased from Life Technologies (Carlsbad, Calif., USA). Boron-dipyrromethene (BODIPY)-labeled probe ligand was synthesized as described below.
Time-Resolved Fluorescence Resonance Energy Transfer (TR-FRET) Assay
All assays were conducted using 384-well, white, flat-bottomed plates (product #784075, Greiner Bio-One, Frickenhausen, Germany) in kinase assay buffer, which consists of 50 mM HEPES pH 7.6, 10 mM MgCl2, 1 mM EGTA, 0.01% Brig-35, 0.1 mM DTT). The fluorescent probe ligand was added at a final concentration of 300 nM to solutions containing 0.21 nM Tb-anti-GST Ab, 1 mM CaCl2, 10 μg/mL calmodulin, and 0.5 nM GST-tagged CaMKIIδ. After shaded incubation of the protein-probe mixture on ice for 30 min, the premix was dispensed in the assay plate including test inhibitors with 4 fold dilution series of eight concentrations. After 1 hr incubation at room temperature, TR-FRET signals were measured in duplicate using an EnVision microplate reader (Perkin Elmer, Waltham, Mass., USA). The solution in each well was excited with a laser (λ=340 nm) reflected by a dichroic mirror (D400/D505 (Perkin Elmer) through an excitation filter (UV (TRF) 340, (Perkin Elmer)), and fluorescence from Tb and BODIPY were detected through two emission filters (CFP 495 (Perkin Elmer) for Tb, Emission 520 (Perkin Elmer) for BODIPY).
The percentage of inhibition of test compounds was calculated according to equation (1) Inhibition(%)=100×(μH−T)/(μH−μL) (1)
Where T is the value of the wells containing test compounds and μH and μL are the mean values of the 0% and 100% inhibition control wells, respectively. The values of the 0 and 100% controls were the signals obtained in the absence and presence of 3 μM its parent compound, respectively. The half maximal inhibitory concentration (IC50) of test compounds was calculated by fitting the data with the logistic equation using XLfit (IDBS, Guildford, UK). The IC50 was classified according to the following activity ranks.

Compound	IC50 [nM]
COCCOc1nn([C@H]2CC[C@H](N3CCOCC3)CC2)cc1Nc1ncc(-c2ccc(C#N)c(O[C@@H](C)Cn3cnnn3)c2)cn1 [Example 1, 2-(((S)-1-(1H-tetrazol-1-yl)propan-2-yl)oxy)-4-(2-((3-(2-methoxyethoxy)-1-((1r,4r)-4-morpholinocyclohexyl)-1H-pyrazol-4-yl)amino)pyrimidin-5-yl)benzonitrile]	< 10
COCCOc1nn([C@H]2CC[C@H](N3CCOCC3)CC2)cc1Nc1ncc(-c2ccc(Cl)c(O[C@@H](C)Cn3cnnn3)c2)cn1 [Example 2, 5-(3-(((S)-1-(1H-tetrazol-1-yl)propan-2-yl)oxy)-4-chlorophenyl)-N-(3-(2-methoxyethoxy)-1-((1r,4r)-4-morpholinocyclohexyl)-1H-pyrazol-4-yl)pyrimidin-2-amine]	< 10
CCOCCOc1nn([C@H]2CC[C@H](N3CCOCC3)CC2)cc1Nc1ncc(-c2ccc(C#N)c(O[C@@H](C)Cn3cnnn3)c2)cn1 [Example 8, 2-(((S)-1-(1H-tetrazol-1-yl)propan-2-yl)oxy)-4-(2-((3-(2-ethoxyethoxy)-1-((1r,4r)-4-morpholinocyclohexyl)-1H-pyrazol-4-yl)amino)pyrimidin-5-yl)benzonitrile]	< 10
CCOCCOc1nn([C@H]2CC[C@H](N3CCOCC3)CC2)cc1Nc1ncc(-c2ccc(Cl)c(O[C@@H](C)Cn3cnnn3)c2)cn1 [Example 9, 5-(3-(((S)-1-(1H-tetrazol-1-yl)propan-2-yl)oxy)-4-chlorophenyl)-N-(3-(2-ethoxyethoxy)-1-((1r,4r)-4-morpholinocyclohexyl)-1H-pyrazol-4-yl)pyrimidin-2-amine]	< 10
CC(C)OCCOc1nn([C@H]2CC[C@H](N3CCOCC3)CC2)cc1Nc1ncc(-c2ccc(C#N)c(O[C@@H](C)Cn3cnnn3)c2)cn1 [Example 14, 2-(((S)-1-(1H-tetrazol-1-yl)propan-2-yl)oxy)-4-(2-((3-(2-isopropoxyethoxy)-1-((1r,4r)-4-morpholinocyclohexyl)-1H-pyrazol-4-yl)amino)pyrimidin-5-yl)benzonitrile]	< 10
CC(C)OCCOc1nn([C@H]2CC[C@H](N3CCOCC3)CC2)cc1Nc1ncc(-c2ccc(C#N)c(O[C@@H](C)Cn3cncn3)c2)cn1 [Example 16, 2-(((S)-1-(1H-1,2,4-triazol-1-yl)propan-2-yl)oxy)-4-(2-((3-(2-isopropoxyethoxy)-1-((1r,4r)-4-morpholinocyclohexyl)-1H-pyrazol-4-yl)amino)pyrimidin-5-yl)benzonitrile]	< 10
COCCCOc1nn([C@H]2CC[C@H](N3CCOCC3)CC2)cc1Nc1ncc(-c2ccc(Cl)c(O[C@@H](C)Cn3cnnn3)c2)cn1 [Example 27, 5-(3-(((S)-1-(1H-tetrazol-1-yl)propan-2-yl)oxy)-4-chlorophenyl)-N-(3-(3-methoxypropoxy)-1-((1r,4r)-4-morpholinocyclohexyl)-1H-pyrazol-4-yl)pyrimidin-2-amine]	< 10
COCCCOc1nn([C@H]2CC[C@H](N3CCOCC3)CC2)cc1Nc1ncc(-c2ccc(C#N)c(O[C@@H](C)Cn3cncn3)c2)cn1 [Example 28, 2-(((S)-1-(1H-1,2,4-triazol-1-yl)propan-2-yl)oxy)-4-(2-((3-(3-methoxypropoxy)-1-((1r,4r)-4-morpholinocyclohexyl)-1H-pyrazol-4-yl)amino)pyrimidin-5-yl)benzonitrile]	< 10
CCOCCCOc1nn([C@H]2CC[C@H](N3CCOCC3)CC2)cc1Nc1ncc(-c2ccc(Cl)c(O[C@@H](C)Cn3cnnn3)c2)cn1 [Example 34, 5-(3-(((S)-1-(1H-tetrazol-1-yl)propan-2-yl)oxy)-4-chlorophenyl)-N-(3-(3-ethoxypropoxy)-1-((1r,4r)-4-morpholinocyclohexyl)-1H-pyrazol-4-yl)pyrimidin-2-amine]	< 10
C[C@@H](Cn1cnnn1)Oc1cc(-c2cnc(Nc3cn([C@H]4CC[C@H](N5CCOCC5)CC4)nc3OCCCOCC(F)F)nc2)ccc1C#N [Example 46, 2-(((S)-1-(1H-tetrazol-1-yl)propan-2-yl)oxy)-4-(2-((3-(3-(2,2-difluoroethoxy)propoxy)-1-((1r,4r)-4-morpholinocyclohexyl)-1H-pyrazol-4-yl)amino)pyrimidin-5-yl)benzonitrile]	< 10
C[C@@H](Cn1cnnn1)Oc1cc(-c2cnc(Nc3cn([C@H]4CC[C@H](N5CCOCC5)CC4)nc3OCCCOCC(F)F)nc2)ccc1Cl [Example 47, 5-(3-(((S)-1-(1H-tetrazol-1-yl)propan-2-yl)oxy)-4-chlorophenyl)-N-(3-(3-(2,2-difluoroethoxy)propoxy)-1-((1r,4r)-4-morpholinocyclohexyl)-1H-pyrazol-4-yl)pyrimidin-2-amine]	< 10
COCCOCCOc1nn([C@H]2CC[C@H](N3CCOCC3)CC2)cc1Nc1ncc(-c2ccc(C#N)c(O[C@@H](C)Cn3cnnn3)c2)cn1 [Example 48, 2-(((S)-1-(1H-tetrazol-1-yl)propan-2-yl)oxy)-4-(2-((3-(2-(2-methoxyethoxy)ethoxy)-1-((1r,4r)-4-morpholinocyclohexyl)-1H-pyrazol-4-yl)amino)pyrimidin-5-yl)benzonitrile hydrochloride]	< 10
COCCOCCOc1nn([C@H]2CC[C@H](N3CCOCC3)CC2)cc1Nc1ncc(-c2ccc(Cl)c(O[C@@H](C)Cn3cnnn3)c2)cn1 [Example 49, 5-(3-(((S)-1-(1H-tetrazol-1-yl)propan-2-yl)oxy)-4-chlorophenyl)-N-(3-(2-(2-methoxyethoxy)ethoxy)-1-((1r,4r)-4-morpholinocyclohexyl)-1H-pyrazol-4-yl)pyrimidin-2-amine hydrochloride]	< 10
C[C@@H](Cn1cnnn1)Oc1cc(-c2cnc(Nc3cn([C@H]4CC[C@H](N5[C@@H]6CC[C@H]5COC6)CC4)nc3OCCS(C)(=O)=O)nc2)ccc1Cl [Example 86, 5-(3-(((S)-1-(1H-tetrazol-1-yl)propan-2-yl)oxy)-4-chlorophenyl)-N-(1-((1r,4r)-4-((1R,5S)-3-oxa-8-azabicyclo[3.2.1]octan-8-yl)cyclohexyl)-3-(2-(methylsulfonyl)ethoxy)-1H-pyrazol-4-yl)pyrimidin-2-amine]	< 10
C[C@@H](Cn1cnnn1)Oc1cc(-c2cnc(Nc3cn([C@H]4CC[C@H](N5CCOCC5)CC4)nc3OCc3ccccn3)nc2)ccc1C#N [Example 129, 2-(((S)-1-(1H-tetrazol-1-yl)propan-2-yl)oxy)-4-(2-((1-((1r,4r)-4-morpholinocyclohexyl)-3-(pyridin-2-ylmethoxy)-1H-pyrazol-4-yl)amino)pyrimidin-5-yl)benzonitrile]	< 10
C[C@@H](Cn1cnnn1)Oc1cc(-c2cnc(Nc3cn([C@H]4CC[C@H](N5CCOCC5)CC4)nc3OCc3ccccn3)nc2)ccc1Cl [Example 130, 5-(3-(((S)-1-(1H-tetrazol-1-yl)propan-2-yl)oxy)-4-chlorophenyl)-N-(1-((1r,4r)-4-morpholinocyclohexyl)-3-(pyridin-2-ylmethoxy)-1H-pyrazol-4-yl)pyrimidin-2-amine]	< 10
C[C@@H](Cn1cnnn1)Oc1cc(-c2cnc(Nc3cn([C@H]4CC[C@H](N5[C@@H]6CC[C@H]5COC6)CC4)nc3OCCCS(C)(=O)=O)nc2)ccc1Cl [Example 142, 5-(3-(((S)-1-(1H-tetrazol-1-yl)propan-2-yl)oxy)-4-chlorophenyl)-N-(1-((1r,4r)-4-((1R,5S)-3-oxa-8-azabicyclo[3.2.1]octan-8-yl)cyclohexyl)-3-(3-(methylsulfonyl)propoxy)-1H-pyrazol-4-yl)pyrimidin-2-amine]	< 10
COCCCCOc1nn([C@H]2CC[C@H](N3CCOCC3)CC2)cc1Nc1ncc(-c2ccc(C#N)c(O[C@@H](C)Cn3cnnn3)c2)cn1 [Example 150, 2-(((S)-1-(1H-tetrazol-1-yl)propan-2-yl)oxy)-4-(2-((3-(4-methoxybutoxy)-1-((1r,4r)-4-morpholinocyclohexyl)-1H-pyrazol-4-yl)amino)pyrimidin-5-yl)benzonitrile]	< 10
COCCCCOc1nn([C@H]2CC[C@H](N3CCOCC3)CC2)cc1Nc1ncc(-c2ccc(Cl)c(O[C@@H](C)Cn3cnnn3)c2)cn1 [Example 151, 5-(3-(((S)-1-(1H-tetrazol-1-yl)propan-2-yl)oxy)-4-chlorophenyl)-N-(3-(4-methoxybutoxy)-1-((1r,4r)-4-morpholinocyclohexyl)-1H-pyrazol-4-yl)pyrimidin-2-amine]	< 10
